Data published in patent US6696600B2, “L-DOPA ethyl ester salts and uses thereof” (priority 2001, dated 2004).
Like-named read-outs stand apart in the source and are kept apart here. Each block holds one compound with its values, some of them ahead of it.

Tests used:
[1] = Hygroscopicity test: weight gain of solid sample in humidity chamber at RH=80%; assay type: physicochemical; conditions: for hygroscopicity (in words): RH=80% screening; for weight gain in hygroscopicity test / appearance after exposure in a humidity chamber: RH=80%; for weight gain in hygroscopicity test: T=20±2° C., during 24 hrs
Description: There are many methods of quantitative evaluation of hygroscopicity of solid products without measuring the hygroscopic point. The most widely used method is based on measuring the weight gain of a solid sample in a humidity chamber. […] This method was used for screening the hygroscopicity of several LDEE salts. It also provides a comparison of the hygroscopic properties of different solids by comparison of water absorption rates under the same conditions.

[2] = pKa and delta pKa (pKa LDEE − pKa acid); assay type: physicochemical
Description: Preparation and selection of salts that have different physical properties are detailed in the literature. […]. PKa of LDEE free base is known to be 7.24 [8]. […]. This fact is illustrated in Example 1 below, in which the crystallization of LDEE palmitate was attempted. After dissolution of LDEE base and palmitic acid in absolute alcohol, the solution was cooled, and instead of forming a new salt, pure palmitic acid was crystallized out, and no solid crystalline salt was formed. […]

[3] = Exposure of hygroscopic salts to atmospheric air
[4] = cited from earlier work; for pKa (first value): acid or acid salt used for salt preparation
[5] = Stability of dihydrates, impurity profile (HPLC), 8 days at 65° C.; assay type: physicochemical
Procedure: The stability of succinate dihydrate and fumarate dihydrate were investigated under the following test conditions: 8 days at 65° C. in glass vial (air) (Table 1).

pH of water solution = assay type: physicochemical
[6] = background, from references; cited from earlier work
[7] = background statement; cited from earlier work
[8] = End, 8 days at 65° C. in glass vial (air)

SMILES: CC(=O)O.CCOC(=O)[C@@H](N)Cc1ccc(O)c(O)c1 [Example 2, LDEE Acetate]
Color stability at RH = 80% ([1]; RH = 80%): 1.5 h
Mean water absorption rate at RH = 80% ([1]; RH = 80%): 0.155 mol/kg/h
Material appearance after 24 hrs at RH = 80% ([1]; RH = 80%): Semi-solid melt
Weight gain during 24 hrs at RH = 80%,% ([1]; RH = 80%): 6.7%
hygroscopicity (in words) [1]: hygroscopic
weight gain in hygroscopicity test [1]: 6.7%
delta pKa pKaLDEE − pKaacid (first value) [2]: 2.48
behaviour in atmospheric air (in words) [3]: deliquescent

SMILES: CCCCCCCCCCCCCC(=O)O [Myristic acid]
pKa (first value) [4]: ˜4.8

SMILES: O=C(O)CCCc1ccccc1 [Phenyl Butyric acid]
pKa (first value) [4]: 4.76

SMILES: CCOC(=O)[C@@H](N)Cc1ccc(O)c(O)c1.CCOC(=O)[C@@H](N)Cc1ccc(O)c(O)c1.O.O.O=C(O)CCC(=O)O [Example 23, LDEE Succinate Dihydrate]
Color stability at RH = 80% ([1]; RH = 80%): >72 h
Mean water absorption rate at RH = 80% ([1]; RH = 80%): 0.006 mol/kg/h
water absorption at RH=80% (in words) ([1]; RH = 80%): did not absorb water
Material appearance after 24 hrs at RH = 80% ([1]; RH = 80%): White flowable powder
Weight gain during 24 hrs at RH = 80%,% ([1]; RH = 80%): 0.27%
hygroscopicity (in words) [1]: non-hygroscopic
weight gain in hygroscopicity test [1]: 0.27%
appearance after exposure in a humidity chamber ([1]; about 72 hrs): white flowable powder
Assay LDEE (%) [5, 8]: 73.46%
L-DOPA (%) [5, 8]: 0.56%
Unknown RRT = 0.83 (%) [5, 8]: 0.03%
cyc.L-DOPA (%) [5, 8]: 0.03%
Assay LDEE (%) ([5]; Start): 74.1%
L-DOPA (%) ([5]; Start): 0.1%
pH of water solution (pH of water solution): 5.8
delta pKa pKaLDEE − pKaacid (first value) [2]: 3.08
delta pKa pKaLDEE − pKaacid (second value) [2]: 1.63

SMILES: CCCCCCCC/C=C\CCCCCCCC(=O)O [Oleic acid]
pKa (first value) [4]: ˜4.8

SMILES: CCOC(=O)[C@@H](N)Cc1ccc(O)c(O)c1 [LDEE, L-DOPA ethyl ester]
Color stability at RH = 80%, hrs ([1]; RH = 80%): ˜50 hrs
Mean water absorption rate at RH = 80% ([1]; RH = 80%): 0.005 mol/kg/h
Material appearance after 24 hrs at RH = 80% ([1]; RH = 80%): White flowable powder
Weight gain during 24 hrs at RH = 80%,% ([1]; RH = 80%): 0.24%
hygroscopicity (in words) [1]: not a hygroscopic material
pH of water solution (pH of water solution): 8.2
delta pKa pKaLDEE − pKaacid (first value) [2]: 0
hygroscopicity (in words) [6]: non-hygroscopic
aqueous solution pH [7]: 8.2

SMILES: CCCCCCCCCCCCCCCCCC(=O)O [Stearic acid]
pKa (first value) [4]: ˜4.8

SMILES: CCOC(=O)[C@@H](N)Cc1ccc(O)c(O)c1.Cl [hydrochloride salt of LDEE]
hygroscopicity (in words) [6]: extremely hygroscopic

SMILES: CCOC(=O)[C@@H](N)Cc1ccc(O)c(O)c1.CCOC(=O)[C@@H](N)Cc1ccc(O)c(O)c1.O.O.O=C(O)/C=C/C(=O)O [Example 25, LDEE Fumarate Dihydrate]
Color stability at RH = 80% ([1]; RH = 80%): >48 h
Mean water absorption rate at RH = 80% ([1]; RH = 80%): 0.0004 mol/kg/h
water absorption at RH=80% (in words) ([1]; RH = 80%): did not absorb water
Material appearance after 24 hrs at RH = 80% ([1]; RH = 80%): White flowable powder
Weight gain during 24 hrs at RH = 80%,% ([1]; RH = 80%): 0.04%
hygroscopicity (in words) [1]: non-hygroscopic
weight gain in hygroscopicity test [1]: 0.04%
appearance after exposure in a humidity chamber ([1]; more than 48 hrs): white flowable powder
Assay LDEE (%) [5, 8]: 75.0%
L-DOPA (%) [5, 8]: 0.27%
LD-LDEE (%) [5, 8]: 0.03%
Unknown RRT = 0.72 (%) [5, 8]: 0.09%
cyc.L-DOPA (%) [5, 8]: L.T. 0.03%
Assay LDEE (%) ([5]; Start): 75.0%
L-DOPA (%) ([5]; Start): 0.11%
LD-LDEE (%) ([5]; Start): L.T. 0.03%
pH of water solution (pH of water solution): 5.5
delta pKa pKaLDEE − pKaacid (first value) [2]: 4.21
delta pKa pKaLDEE − pKaacid (second value) [2]: 2.7

DpKa [2]: 2.4
SMILES: CCCCCCCCCCCCCCCC(=O)O [Palmitic acid]
pKa (first value) [4]: ˜4.8
pKa [4]: 4.8

SMILES: CCOC(=O)[C@@H](N)Cc1ccc(O)c(O)c1.CS(=O)(=O)O [Example 3, LDEE Mesylate]
Color stability at RH = 80% ([1]; RH = 80%): >24 h
Mean water absorption rate at RH = 80% ([1]; RH = 80%): 0.405 mol/kg/h
Material appearance after 24 hrs at RH = 80% ([1]; RH = 80%): Syrup
Weight gain during 24 hrs at RH = 80%,% ([1]; RH = 80%): 17.5%
hygroscopicity (in words) [1]: hygroscopic
weight gain in hygroscopicity test [1]: 17.5%
delta pKa pKaLDEE − pKaacid (first value) [2]: 6.04
behaviour in atmospheric air (in words) [3]: deliquescent
